Assay results from the NIST ThermoML archive (doi:10.1021/je7003758).

Test: xn = mol fraction of the nth substance listed
Conditions: 298.15 K, Liquid

ClCCCl [1,2-dichloroethane] + CN1CCCC1=O
mass density [kg/m3]
Conditions	x2 = 0.0993	x2 = 0.2025	x2 = 0.3012	x2 = 0.4029	x2 = 0.4975	x2 = 0.5832	x2 = 0.7037	x2 = 0.7984	x2 = 0.9029
100 kPa	1220.4	1195.3	1172.3	1149.2	1128.3	1110	1085.1	1066.3	1046.2
500 kPa	1220.7	1195.6	1172.6	1149.4	1128.5	1110.2	1085.4	1066.5	1046.5
1000 kPa	1221.2	1196	1173	1149.8	1128.9	1110.5	1085.7	1066.8	1046.7
1500 kPa	1221.7	1196.5	1173.4	1150.2	1129.2	1110.9	1086	1067.1	1047
2000 kPa	1222.1	1196.9	1173.7	1150.6	1129.6	1111.2	1086.3	1067.4	1047.3
2500 kPa	1222.6	1197.3	1174.2	1150.9	1129.9	1111.5	1086.6	1067.7	1047.6
2900 kPa	–	–	1174.5	–	–	–	–	–	–
3000 kPa	1223	1197.7	–	1151.3	1130.3	1111.9	1086.9	1068	1047.8
3400 kPa	–	–	–	1151.6	–	–	–	–	–
3500 kPa	1223.5	1198.1	1174.9	–	1130.6	–	1087.2	1068.3	1048.1
3600 kPa	–	–	–	–	–	1112.2	–	–	–
4000 kPa	1223.9	1198.5	1175.3	1152	1131	1112.5	1087.6	1068.6	1048.4
4500 kPa	1224.4	1198.9	1175.7	–	1131.3	1112.8	1087.8	1068.8	1048.6
4600 kPa	–	–	–	1152.3	–	–	–	–	–
5000 kPa	1224.8	1199.3	1176.1	1152.8	1131.6	1113.2	1088.1	1069.1	1048.9
5500 kPa	1225.2	1199.8	1176.5	1153.1	1131.9	1113.5	1088.4	1069.4	1049.2
6000 kPa	1225.7	1200.2	1176.9	1153.5	1132.4	1113.8	1088.7	1069.7	1049.4
6500 kPa	1226.1	1200.6	1177.2	1153.9	1132.7	1114.1	1089	1070	1049.7
6900 kPa	–	–	–	–	–	1114.4	–	–	–
7000 kPa	1226.5	1201	1177.6	1154.2	1133	–	1089.3	1070.3	1050
7500 kPa	1227	1201.4	1178	1154.6	1133.3	1114.8	1089.6	1070.5	1050.2
7900 kPa	–	–	–	–	1133.7	–	–	–	–
8000 kPa	1227.4	1201.8	1178.4	1154.9	–	1115	1089.9	1070.9	1050.6
8500 kPa	1227.8	1202.2	1178.8	1155.3	1134.1	1115.4	1090.2	1071.1	1050.8
8900 kPa	–	1202.6	–	–	–	–	–	–	–
9000 kPa	1228.2	–	1179.2	1155.6	1134.4	1115.7	1090.5	1071.3	1051.1
9500 kPa	1228.6	1203.1	1179.6	1156	1134.7	1116	1090.8	1071.6	1051.3
9900 kPa	–	–	1180	–	1135	–	–	–	–
10000 kPa	1229.2	1203.6	–	1156.4	–	1116.4	1091.1	1072	1051.7
10500 kPa	1229.6	1203.9	1180.4	1156.7	1135.4	1116.7	1091.4	1072.2	1051.9
10900 kPa	–	–	1180.7	–	–	1117	–	–	–
11000 kPa	1230	1204.3	–	1157.1	1135.7	–	1091.7	1072.5	1052.2
11500 kPa	1230.4	1204.6	1181.1	1157.5	1136.1	1117.4	1092	1072.8	1052.4
11900 kPa	–	–	–	–	1136.4	–	–	–	–
12000 kPa	1230.8	1205.1	1181.5	1157.8	–	1117.7	1092.3	1073	1052.7
12500 kPa	1231.3	1205.5	1181.9	1158.2	1136.8	1118	1092.6	1073.3	1053
13000 kPa	1231.7	1205.9	1182.2	1158.5	1137.1	1118.3	1092.8	1073.6	1053.2
13400 kPa	–	–	–	–	1137.4	–	–	–	–
13500 kPa	1232.1	1206.2	1182.6	1158.8	–	1118.5	1093.2	1073.9	1053.5
14000 kPa	1232.5	1206.6	1183	1159.2	1137.7	1118.9	1093.4	1074.2	1053.8
14500 kPa	1232.9	1207	–	1159.5	1138	1119.2	1093.7	1074.4	1054.1
14600 kPa	–	–	1183.4	–	–	–	–	–	–
15000 kPa	1233.3	1207.4	1183.7	1159.8	1138.4	1119.4	1094	1074.8	1054.3
15400 kPa	–	–	–	–	–	1119.8	–	–	–
15500 kPa	1233.7	1207.8	1184.1	1160.2	1138.7	–	1094.3	1075	1054.6
15900 kPa	–	1208.2	–	–	–	1120	–	–	–
16000 kPa	1234.2	–	1184.4	1160.5	1139	–	1094.6	1075.3	1054.8
16500 kPa	1234.6	1208.6	1184.8	1160.9	1139.3	1120.4	1094.8	1075.6	1055.1
17000 kPa	1235	–	1185.1	1161.2	1139.7	1120.7	1095.1	1075.9	1055.3
17100 kPa	–	1209	–	–	–	–	–	–	–
17400 kPa	–	–	1185.4	–	–	–	–	–	–
17500 kPa	1235.4	1209.4	–	1161.6	1140	1121	1095.4	1076.1	1055.6
17900 kPa	–	–	–	1161.8	–	–	–	–	–
18000 kPa	1235.8	1209.8	1185.8	–	1140.3	1121.2	1095.7	1076.4	1055.8
18400 kPa	–	1210.2	–	1162.2	–	–	–	–	–
18500 kPa	1236.2	–	1186.1	–	1140.6	1121.5	1096	1076.7	1056.1
19000 kPa	1236.6	1210.6	1186.6	1162.6	1140.9	1121.9	1096.3	1077	1056.4
19400 kPa	–	–	–	–	1141.3	–	–	–	–
19500 kPa	1237	1211	1186.9	1163	–	1122.2	1096.6	1077.2	1056.6
20000 kPa	1237.5	1211.4	1187.4	1163.4	1141.9	1122.6	1096.9	1077.5	1057.1
